Assay results from patent US9617282B2, “Macrocyclic compounds as IRAK4 inhibitors for the treatment of inflammatory diseases” (BIOGEN MA INC., priority 2013, dated 2017).

What follows are compounds tested against IRAK4 (Homo sapiens (Human), UniProt Q9NWZ3) (assay: IRAK-4 biochemical kinase assay, AlphaScreen format). Settings: 1 nM IRAK4, 1.6 μM peptide, 10 μM ATP, 3.5 h at RT; class symbols.
Description: The biochemical assay is in a AlphaScreen format. The kinase reaction is based on the IRAK-4 phosphorylation of a biotin labeled peptide. The phosphopeptide is incubated with anti-phosphothreonine antibody as well as streptavidin- and protein A-coated beads. Binding of the protein-A coated beads to the antibody and the streptavidin beads to the peptide, leads to an energy transfer from one bead to the other, ultimately producing a luminescent/fluorescent signal.

IRAK4, sequence (Q9NWZ3 whole entry, species assumed): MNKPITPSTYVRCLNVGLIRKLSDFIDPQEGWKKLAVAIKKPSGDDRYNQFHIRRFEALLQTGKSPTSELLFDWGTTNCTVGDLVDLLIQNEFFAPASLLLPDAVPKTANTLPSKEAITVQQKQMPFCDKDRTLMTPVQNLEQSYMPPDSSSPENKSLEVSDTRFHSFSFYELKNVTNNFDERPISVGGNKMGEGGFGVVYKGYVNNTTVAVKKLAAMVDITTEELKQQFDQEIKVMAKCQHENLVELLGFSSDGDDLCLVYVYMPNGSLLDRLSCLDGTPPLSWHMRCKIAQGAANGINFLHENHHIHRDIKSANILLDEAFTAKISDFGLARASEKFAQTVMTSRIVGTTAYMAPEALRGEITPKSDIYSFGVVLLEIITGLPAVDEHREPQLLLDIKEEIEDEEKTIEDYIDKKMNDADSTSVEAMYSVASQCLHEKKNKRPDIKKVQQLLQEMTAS

IC50 | Structure (SMILES)
< 100 nM | NC(=O)CCN1CCCc2cc(ccn2)-c2nc(cs2)C(=O)Nc2cn(C3CCOCC3)nc2C(=O)NCC1 [Example 181]
< 100 nM | O=C1Nc2cc(C(=O)N3CCOCC3)ccc2OCCCCCNc2cc(ccn2)-c2nc1cs2 [Compound 22]
< 1000 nM | CC1NC(=O)c2nn(C3CCOCC3)cc2NC(=O)c2csc(n2)-c2ccnc(c2)CCCNC1=O (centres unmarked) [Example 197]
< 100 nM | CC1CCCCOc2ccccc2NC(=O)c2coc(n2)-c2ccnc(c2)N1 (centres unmarked) [Compound 10]
< 100 nM | O=C1Nc2ccc(CCCN3CCCCC3)cc2OCCCCCNc2cc(ccn2)-c2nc1cs2 [Compound 27]
< 100 nM | Cn1cc2c(n1)C(=O)NCCCCCc1cc(ccn1)-c1nc(co1)C(=O)N2 [Compound 39]
< 1000 nM | O=C1NCC2CCC(CC2)OCCNc2cc(ccn2)-c2nc1co2 [Example 85]
< 100 nM | O=C(O)CCN1CCCc2cc(ccn2)-c2nc(cs2)C(=O)Nc2cn(C3CCOCC3)nc2C(=O)NCC1 [Example 179]
< 1000 nM | NC(=O)CCC1NC(=O)c2nn(C3CCOCC3)cc2NC(=O)c2csc(n2)-c2ccnc(c2)CCCNC1=O (centres unmarked) [Example 195]
< 10000 nM | Cn1cc2c(n1)C(=O)NCCCCOc1cc(ccn1)-c1nc(c[nH]1)C(=O)N2 [Example 92]
< 10000 nM | O=C1c2coc(n2)-c2ccnc(c2)OCCCCCCN1Cc1ccccc1 [Compound 51]
< 100 nM | CNC(=O)N1CCCc2cc(ccn2)-c2nc(cs2)C(=O)Nc2cn(C3CCOCC3)nc2C(=O)NCC1 [Example 186]
< 1000 nM | O=C1Nc2cn(C3CCOCC3)nc2C(=O)NCCOCCOc2cc(ccn2)-c2csc1n2 [Example 214]
< 1000 nM | O=C1Nc2cn(C3CCOCC3)nc2C(=O)NCCOCCOc2cc(ccn2)-c2cc1ccn2 [Example 212]
< 100 nM | O=C1Nc2cn(C3CCOCC3)nc2C(=O)NCCN(C(=O)C2CC2)CCCc2cc(ccn2)-c2nc1cs2 [Example 184]
< 1000 nM | O=C1Nc2cn(C3CCOCC3)nc2C(=O)NCCOCCOc2cc(ccn2)-c2cccc1n2 [Example 204]
< 100 nM | CN(C)C1CCN(C(=O)c2ccc3c(c2)NC(=O)c2csc(n2)-c2ccnc(c2)NCCCCCO3)C1 (centres unmarked) [Compound 21]
< 100 nM | CCOC(=O)CCN1CCCc2cc(ccn2)-c2nc(cs2)C(=O)Nc2cn(C3CCOCC3)nc2C(=O)NCC1 [Example 180]
< 100 nM | O=C1Nc2cn(C3CCOCC3)nc2C(=O)NCCCCCOc2cc(ccn2)-c2nc1co2 [Compound 38]
< 1000 nM | CCN1CCCCCCCCNC(=O)c2csc(n2)-c2ccnc1c2 [Example 67]
< 100 nM | O=C(NCCN1CCOCC1)c1ccc2c(c1)NC(=O)c1csc(n1)-c1ccnc(c1)NCCCCCO2 [Compound 19]
< 100 nM | CC(C)N1CCCc2cc(ccn2)-c2nc(cs2)C(=O)Nc2cn(C3CCOCC3)nc2C(=O)NCC1 [Example 174]
< 100 nM | CN(C)CCC(=O)N1CCCc2cc(ccn2)-c2nc(cs2)C(=O)Nc2cn(C3CCOCC3)nc2C(=O)NCC1 [Example 177]

IC50 | Structure (SMILES)
< 1000 nM | Cn1cc(N2CCCCCOc3cnccc3-c3nc(co3)C2=O)cn1 [Compound 61]
< 100 nM | Cn1cc2c(n1)C(=O)NCCCCNc1cc(ccn1)-c1nc(co1)C(=O)N2 [Compound 31]
< 100 nM | CC(C)(CO)C(=O)N1CCCc2cc(ccn2)-c2nc(cs2)C(=O)Nc2cn(C3CCOCC3)nc2C(=O)NCC1 [Example 185]
< 10000 nM | O=C1NCCOC2CCC(CC2)CNc2cc(ccn2)-c2nc1cs2 [Example 88]
< 100 nM | O=C1Nc2ccccc2OCCCCCNc2cc(ccn2)-c2nc1cs2 [Compound 13]
< 100 nM | O=C1Nc2cn(C3CCOCC3)nc2C(=O)NCCN(C(=O)C2CCOCC2)CCCc2cc(ccn2)-c2nc1cs2 [Example 190]
< 100 nM | Cn1cc2c(n1)C(=O)NCCOCCOc1cc(ccn1)-c1cccc(n1)C(=O)N2 [Example 203]
< 100 nM | CN1CCOCCNC(=O)c2nn(CCN3CCOCC3)cc2NC(=O)c2csc(n2)-c2ccnc1c2 [Example 220]
< 10000 nM | Cn1cc2c(n1)C(=O)NCCOCCOc1cc(ccn1)-c1csc(n1)C(=O)N2 [Example 213]
< 100 nM | O=C1Nc2cc(CCCN3CCCCC3)ccc2OCCCCCNc2cc(ccn2)-c2nc1cs2 [Compound 26]
< 1000 nM | O=C1Nc2cn(C3CCOCC3)nc2C(=O)NCCCCCn2cc(cn2)-c2nc1co2 [Compound 42]
< 1000 nM | O=C(CCC1NC(=O)c2nn(C3CCOCC3)cc2NC(=O)c2csc(n2)-c2ccnc(c2)CCCNC1=O)NCc1ccccc1 (centres unmarked) [Example 193]
< 1000 nM | CN(C)CCN1CCCCCCOc2cc(ccn2)-c2nc(co2)C1=O [Compound 54]
< 10000 nM | Cn1cc2c(n1)C(=O)NCCOCCOc1cc(ccn1)-n1cc(cn1)C(=O)N2 [Example 202]
< 1000 nM | Cn1cc2c(n1)C(=O)NCCOCCOc1cc(ccn1)-c1cccc(c1)C(=O)N2 [Example 209]
< 1000 nM | O=C1NCCCCCCOc2cc(ccn2)-c2nc1co2 [Compound 58]
< 10000 nM | CC1CNC(=O)c2coc(n2)-c2ccnc(c2)NCCCCCO1 (centres unmarked) [Example 74]
< 1000 nM | Cn1cc2c(n1)C(=O)NCCC/C=C/CCCN(C(=O)OC(C)(C)C)c1cc(ccn1)-c1nc(co1)C(=O)N2 [Compound 28]
< 100 nM | CCC(=O)N1CCCc2cc(ccn2)-c2nc(cs2)C(=O)Nc2cn(C3CCOCC3)nc2C(=O)NCC1 [Example 183]
< 10000 nM | CCN1CCCCCCCCN(CC)c2cc(ccn2)-c2nc(cs2)C1=O [Example 65]
< 1000 nM | O=C1NCC(C2CC2)OCCCCCNc2cc(ccn2)-c2nc1co2 (centres unmarked) [Example 75]
< 10000 nM | CN1CCCCCCOc2cc(ccn2)-c2nc(cs2)C1=O [Example 103]
< 1000 nM | CCN1CCCCCCCCNc2cc(ccn2)-c2nc(cs2)C1=O [Example 66]

IC50 | Structure (SMILES)
< 100 nM | O=C1CNC(=O)c2nn(C3CCOCC3)cc2NC(=O)c2csc(n2)-c2ccnc(c2)CCCN1 [Example 196]
< 100 nM | O=C1Nc2cn(C3CCNCC3)nc2C(=O)NCCOCCOc2cc(ccn2)-c2nc1cs2 [Example 165]
< 100 nM | O=C1c2coc(n2)-c2ccnc(c2)NCCCCCOCC2CCCN12 (centres unmarked) [Compound 59]
< 100 nM | CN1CCOCCNC(=O)c2nn(CCN3CCCCC3)cc2NC(=O)c2csc(n2)-c2ccnc1c2 [Example 221]
< 100 nM | CC1CCCC(C)Oc2ccccc2NC(=O)c2coc(n2)-c2ccnc(c2)N1 (centres unmarked) [Example 71]
< 10000 nM | O=C1Nc2cn(C3CCOCC3)nc2C(=O)NCCCCCc2cc(ccn2)-c2nc1c[nH]2 [Example 97]
< 1000 nM | NC(=O)CN1CCCc2cc(ccn2)-c2nc(cs2)C(=O)Nc2cn(C3CCOCC3)nc2C(=O)NCC1 [Example 175]
< 10000 nM | CN1CCN(CCn2ncc3c2C(=O)NCCOCCOc2cc(ccn2)-c2nc(cs2)C(=O)N3)CC1 [Example 141]
< 100 nM | CN1CCOCCNC(=O)c2nn(C)cc2NC(=O)c2csc(n2)-c2ccnc1c2 [Example 222]
< 100 nM | O=C1Nc2ccccc2OC2CCC(CCc3cc(ccn3)-c3nc1co3)CC2 [Example 81]
< 100 nM | CN1CCCCNC(=O)c2nn(C)cc2NC(=O)c2csc(n2)-c2ccnc1c2 [Example 223]
< 1000 nM | O=C1NCCCCCCCCCn2cc(cn2)-c2nc1co2 [Compound 9]
< 100 nM | CC1CCCCNc2cc(ccn2)-c2nc(co2)C(=O)Nc2ccccc2O1 (centres unmarked) [Example 69]
< 100 nM | CN1CCN(C(=O)c2ccc3c(c2)NC(=O)c2csc(n2)-c2ccnc(c2)NCCCCCO3)CC1 [Compound 23]
< 10000 nM | O=C1c2csc(n2)-c2ccnc(c2)OCCCCOCC2CCCN12 (centres unmarked) [Example 106]
< 1000 nM | O=C1NCCCCCCCCNc2cc(ccn2)-c2nc1cs2 [Example 64]
< 100 nM | CCOC(=O)CC(=O)N1CCCc2cc(ccn2)-c2nc(cs2)C(=O)Nc2cn(C3CCOCC3)nc2C(=O)NCC1 [Example 189]
< 100 nM | O=C1Nc2cn(C3CCOCC3)nc2C(=O)NCCNCCCc2cc(ccn2)-c2nc1cs2 [Example 168]
< 1000 nM | CN(C)C(=O)N1CCCc2cc(ccn2)-c2nc(cs2)C(=O)Nc2cn(C3CCOCC3)nc2C(=O)NCC1 [Example 187]
< 100 nM | CN1CCCCNC(=O)c2nn(C3CCOCC3)cc2NC(=O)c2csc(n2)-c2ccnc1c2 [Example 224]
< 100 nM | Cn1cc2c(n1)C(=O)NCCCCCOc1cc(ccn1)-c1nc(co1)C(=O)N2 [Compound 37]
< 100 nM | O=C1Nc2ccccc2OCCCCCCCn2cc(cn2)-c2nc1co2 [Compound 8]

Structure (SMILES) | IC50
O=C1Nc2ccccc2OCCCCCOc2cc(ccn2)-c2nc1co2 [Compound 3] | < 1000 nM
Cn1cc2c(n1)C(=O)N(COCC[Si](C)(C)C)CCCCOc1cc(ccn1)-c1nc(cn1COCC[Si](C)(C)C)C(=O)N2 [Example 93] | < 10000 nM
C[Si](C)(C)CCOCn1cc2nc1-c1ccnc(c1)CCCCCNC(=O)c1nn(C3CCOCC3)cc1NC2=O [Example 98] | < 10000 nM
Cn1cc2c(n1)C(=O)NCCCCCc1cc(ccn1)-c1nc(cn1COCC[Si](C)(C)C)C(=O)N2 [Example 99] | < 10000 nM
O=C1Nc2ccccc2OCC/C=C/COc2cc(ccn2)-c2nc1co2 [Example 1] | < 100 nM

Same assay, conditions: 1 nM IRAK4, 1.6 μM peptide, 10 μM ATP, 3.5 h at RT; given as numeric bound

IC50 | Structure (SMILES)
> 10000 nM | Cn1cc2c(n1)C(=O)NCCOCCOc1cc(ccn1)C1=CC=C(S1)C(=O)N2 [Example 205]
> 10000 nM | CCOC(=O)CN1CCCc2cc(ccn2)-c2nc(cs2)C(=O)Nc2cn(C3CCOCC3)nc2C(=O)NCC1 [Example 176]
> 10000 nM | CN1CCCOc2cnccc2-c2nc(c[nH]2)C1=O [Example 101]
> 10000 nM | O=C1Nc2ccccc2OCCCCNc2cc(ccn2)-c2nc1co2 [Example 70]
> 10000 nM | CN(C)CCCN1CCCCCCOc2cc(ccn2)-c2nc(co2)C1=O [Compound 55]
> 10000 nM | CN1CCCOc2cnccc2-c2nc(cs2)C1=O [Example 100]

Structure (SMILES) | IC50
Cn1cc2c(n1)C(=O)NCCCCOc1cc(ccn1)-c1nc(cn1COCC[Si](C)(C)C)C(=O)N2 [Example 94] | > 10000 nM
